# Data reported in patent US8314234B2, “Bicyclic pyrimidine kinase inhibitors” (Janssen Pharmaceutica N.V., priority 2006, dated 2012).
# What was measured:
# CDK2 = target: T1, CDK2 (Homo sapiens, UniProt P24941); assay: CDK-2 screening assay; assay type: biochemical
# T1 construct: purchased Upstate Biotech, Lake Placid, N.Y
# Description: (§1) 70 μL of the kinase reaction mixture was dispensed into the well of a streptavidin coated FlashPlate™ (Cat. #SMP103, NEN, Boston, Mass.).
# (§2) Test compound stock in 100% DMSO (1 μL) was added to the wells resulting in a final concentration of 1% DMSO in the reaction with a 100 μL final reaction volume. Each enzyme was diluted in 50 mM Tris-HCl pH=8.0, 0.1% BSA and 30 μL was added to each well to initiate the reaction. The reaction was incubated for one hour at 30° C. At the end of the 1 hr incubation, the reaction was terminated by aspirating the mixture from the plate and washing the wells twice with PBS containing 100 mM EDTA. The biotinylated peptide substrate became immobilized on the Flashplate and the incorporation of ^33P-γ-ATP was measured by reading the plate on a scintillation counter. Inhibition of the enzymatic activity was measured by observing a reduced amount of ^33P-γ-ATP incorporated into the immobilized peptide.
# The CDK2 enzyme in complex with cyclin A is commercially available (Upstate Biotech, Lake Placid, N.Y.).
# (§3) A maximum and minimum signal for the assay was determined on each plate. The percent inhibition of a test compound was calculated according to the formula: […]
# (§4) The term “ND” means “not determined.”
# CDK1 = target: T2, CDK1 (Homo sapiens, UniProt P06493); assay: CDK-1 screening assay; assay type: biochemical
# T2 construct: purchased New England Biolabs, Beverly, Mass; 6020; host or cells: insect cells
# Description: as §1, §2, §3, §4
# VEGFR2 = VEGFR2 (Rattus norvegicus, UniProt O08775); assay: VEGFR2 screening assay; assay type: biochemical
# Description: A kinase reaction mixture was prepared containing 50 mM Tris-HCl pH=8, 10 mM MgCl2, 0.1 mM […], 1 mM DTT, 10 μM ATP, 0.025 μM biotinylated histone-H1 peptide substrate and 0.2 μCuries per well ^33P-γ-ATP (2000-3000 Ci/mmol). 70 μL of the kinase reaction mixture was dispensed into the well of a streptavidin coated FlashPlate™ (Cat. #SMP103, NEN, Boston, Mass.).
# as §2
# The VEGF-R2 enzyme is a fusion protein containing a polyhistidine tag at the N terminus followed by amino acids 786 to 1343 of the rat VEGF-R2 kinase domain (Accession number U93306). The assay used 150 ng of the N-terminal biotinylated peptide biotin-[…]-amide SEQ ID NO: 2) (VEGF-R2) per well.
# as §3
# For a series of test concentrations, the IC50 was derived by graphing percent inhibition against the log of the concentrations tested for a given compound with results shown in Table 2. For those compounds without an IC50, the inhibition values in percent are shown at a test concentration of 2 μM. The term “ND” means “not determined.”
# EGFR = target: T3, EGFR (Homo sapiens, UniProt P00533); assay: EGFR Kinase Assay; assay type: biochemical
# T3 construct: intracellular portion of EGFR started at nucleotide 2189 (corresponding to amino acid 667) and ended at the termination codon; made in house; host or cells: Sf9 insect cells (baculovirus)
# From the text: The EGFR kinase used was a fusion of Glutathione-S-Transferase (GST) and a PCR amplified intracellular portion of EGFR (NM_005228). The intracellular portion of EGFR started at nucleotide 2189 (corresponding to amino acid 667) and ended at the termination codon. The portion was PCR amplified with primers that added the lambda attB sequences to each end, recombined into an entry vector, then into a GST destination vector (as described in Gateway Technologies Manual by Invitrogen Corporation, Carlsbad, Calif.).
# The destination vector was recombined in the DH10BAC strain of bacteria to produce a bacmid. The bacmid was transfected into Sf9 cells and the supernatant containing the baculovirus was collected. The GSTEGFR protein was purified using large cultures of Sf9 cells infected with stock virus. After an appropriate period of time, the cells were collected and lysed. The GSTEGFR was then purified from the lysate on Glutathione-Sepharose columns (as described by Amersham Biosciences, Buckinghamshire, United Kingdom).
# The EGFR substrate was prepared by biotinylating polyGluTyr (128 mg) (Sigma, St. Louis, Mo.) in a 1×PBS buffer incubated together with a 12-fold molar excess of Sulfo-NHS-LC-Biotin on ice for at least 2 hrs. The free biotin was separated from the biotinylated polyGluTyr on a gel filtration column.
# A mixture of a 10× kinase buffer (500 mM Tris at pH 8.0, 100 mM Magnesium Chloride and 1 mM Sodium Vanadate), DTT (1 mM final from 500 mM stock), ATP (5 μM final from 10 mM stock), biotinylated polyGluTyr (10 μg/μL stock), γ-^33P ATP (10 μCi/μL stock) and water was added to each well (90 μL/well) of a Streptavidin Flashplate (Perkin Elmer, Wellesley, Mass.).
# Test compound in 100% DMSO (2 μL) was added to the appropriate wells. Diluted GSTEGFR (1:300 dilution in 50 mM Tris at pH 8.0 and 0.1% bovine serum albumin) (10 μL) was added to the wells to initiate the reactions.
# The plates were incubated at 30° C. for 1 hr with shaking. The reacted contents were removed and the plates were sequentially washed three times with a 1×PBS stop buffer (300 μL without Magnesium and Calcium) and 100 mM EDTA. After the final wash, the same stop buffer (200 μL) was added to the wells. The plates were then sealed and read on the TopCount scintillation counter.
# Test compounds were assayed in triplicate at 16 concentrations at half-log dilutions starting at 200 uM. A maximum and minimum signal for the assay was determined on each plate. The percent inhibition of a test compound was calculated according to the formula
# For a series of test concentrations, the IC50 was derived by graphing percent inhibition against the log of the concentrations tested for a given compound. The percent inhibition results are shown in Table 1 at a test concentration of 2 μM. For those compounds with an IC50, the IC50 value is shown in parentheses.
# A375 malignant melanoma = assay: Cell Proliferation Inhibition Assay (14C-thymidine incorporation), A375; assay type: cell-based; conditions: Homo sapiens, A-375
# From the text: (§5) The ability of a test compound to inhibit unregulated cell proliferation may be determined by measuring incorporation of ^14C-labelled thymidine into newly synthesized DNA within cell lines derived from carcinomas originating from several tissues. Accordingly, the anti-proliferative effect of a compound on cells with a variety of phenotypes may be determined.
# (§6) Carcinoma cell lines include those such as HeLa cervical adenocarcinoma (American Type Culture Collection (ATCC), Virginia, Cat. #CCL-2), A375 malignant melanoma (ATCC CRL-1619), SK-OV-3 ovarian adenocarcinoma (ATCC HTB-77), HCT-116 colon carcinoma (CCL-247), PC-3 prostate adenocarcinoma (ATCC CRL-1435), and MDA-MB-231 (Xenogen Corp.)
# (§7) The carcinoma cells are trypsinized and counted. The cells (3000-8000 count) are added to each well of a 96-well CytoStar tissue culture treated scintillating microplate (Amersham #RPNQ0160) in complete medium (100 μL) and the plate is then incubated in complete medium for 24 hrs at 37° C. in an inert atmosphere containing 5% CO2. Test compound (1 μL) in 100% DMSO is added to the plate test-wells with DMSO only added to control-wells. The plate is incubated in complete medium for a second 24 hr period at 37° C. in an atmosphere containing 5% CO2.
# (§8) An aliquot of a solution of Methyl ^14C-thymidine (56 mC/mmol) (NEN #NEC568 or Amersham #CFA532) and complete medium (20 uL to provide 0.2 μCi/well) is then added to each well and the plate is incubated for a third 24 hr period at 37° C. in an atmosphere containing 5% CO2. The plate contents are then discarded, the plate is washed twice with PBS (200 μL) and then PBS (200 μL) is added to each well. The plate is sealed and the degree of methyl ^14C-thymidine incorporation is quantified on a Packard Top Count.
# [1] = system: HeLa cervical adenocarcinoma; assay: Cell Proliferation Inhibition Assay (14C-thymidine incorporation), HeLa; assay type: cell-based; conditions: Homo sapiens
# From the text: as §5, §6, §7, §8
# HCT-116 colon carcinoma = assay: Cell Proliferation Inhibition Assay (14C-thymidine incorporation), HCT-116; assay type: cell-based; conditions: Homo sapiens
# From the text: as §5, §6, §7, §8
# VEGFR2, sequence (O08775 786-1343): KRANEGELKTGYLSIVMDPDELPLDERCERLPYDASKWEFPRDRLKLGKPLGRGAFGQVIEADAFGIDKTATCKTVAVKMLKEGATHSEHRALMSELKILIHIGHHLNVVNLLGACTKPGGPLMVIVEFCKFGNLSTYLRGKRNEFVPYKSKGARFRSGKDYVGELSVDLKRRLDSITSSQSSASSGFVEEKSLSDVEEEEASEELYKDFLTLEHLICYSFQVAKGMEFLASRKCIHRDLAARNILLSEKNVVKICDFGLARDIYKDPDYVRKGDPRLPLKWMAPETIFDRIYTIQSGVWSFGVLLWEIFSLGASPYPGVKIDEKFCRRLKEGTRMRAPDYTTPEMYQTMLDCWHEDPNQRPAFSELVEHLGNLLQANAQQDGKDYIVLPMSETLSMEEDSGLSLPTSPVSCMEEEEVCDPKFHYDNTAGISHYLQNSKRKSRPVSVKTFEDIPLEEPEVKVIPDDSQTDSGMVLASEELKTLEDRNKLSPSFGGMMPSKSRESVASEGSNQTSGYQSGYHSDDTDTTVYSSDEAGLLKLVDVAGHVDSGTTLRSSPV
# T2 sequence (P06493 whole entry): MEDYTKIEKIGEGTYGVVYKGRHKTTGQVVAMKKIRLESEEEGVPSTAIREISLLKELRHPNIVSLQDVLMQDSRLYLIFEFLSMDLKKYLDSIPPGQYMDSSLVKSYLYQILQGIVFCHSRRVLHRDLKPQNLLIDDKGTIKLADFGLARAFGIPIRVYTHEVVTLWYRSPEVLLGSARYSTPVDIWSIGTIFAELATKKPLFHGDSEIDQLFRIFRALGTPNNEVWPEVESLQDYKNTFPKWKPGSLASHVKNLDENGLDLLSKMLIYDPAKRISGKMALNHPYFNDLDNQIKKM
# T2 sequence (P14635 whole entry partner): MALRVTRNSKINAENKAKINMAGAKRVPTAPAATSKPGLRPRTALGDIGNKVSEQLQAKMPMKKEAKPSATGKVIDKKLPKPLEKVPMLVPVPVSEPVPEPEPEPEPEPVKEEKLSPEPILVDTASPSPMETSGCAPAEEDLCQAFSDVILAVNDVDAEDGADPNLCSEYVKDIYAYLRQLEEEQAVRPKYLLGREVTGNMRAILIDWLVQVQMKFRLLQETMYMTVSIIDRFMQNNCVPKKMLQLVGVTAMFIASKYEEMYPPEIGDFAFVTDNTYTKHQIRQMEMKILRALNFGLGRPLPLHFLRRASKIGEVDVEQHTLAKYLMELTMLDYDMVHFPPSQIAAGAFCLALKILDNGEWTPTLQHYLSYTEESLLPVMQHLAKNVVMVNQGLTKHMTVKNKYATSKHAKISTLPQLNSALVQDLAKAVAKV
IC50 (CDK2) [µM],IC50 (CDK1) [µM],IC50 (VEGFR2) [µM],IC50 (A375 malignant melanoma) [µM],IC50 [1] [µM],IC50 (HCT-116 colon carcinoma) [µM],inhibition at 2 µM (EGFR; test concentration of 2 μM) [%],IC50 (EGFR; read-out: EGFR IC50 (value in parentheses)) [µM],Molecule,EGFR Inhibition (%) (EGFR; test concentration of 2 μM)
0.021,0.132,5,100,100,4.9,–,–,"NS(=O)(=O)c1ccc(Nc2nc(Nc3ccc(S(N)(=O)=O)cc3)c3cn[nH]c3n2)cc1 [Cpd 1, N^4,N^6-bis-[4-(amino-sulfonyl)-phenyl]-1H-pyrazolo[3,4-d]pyrimidine-4,6-diamine]",–
1.11,2.34,4.28,–,–,–,40,–,"NS(=O)(=O)c1ccc(Nc2nc(Nc3ccccc3)nc3[nH]ncc23)cc1 [Cpd 6, 4-(6-phenylamino-1H-pyrazolo[3,4-d]pyrimidin-4-ylamino)-benzenesulfonamide]",–
0.139,0.102,1,100,100,100,–,–,"O=S(=O)(NCCO)c1ccc(Nc2nc(Nc3ccc4[nH]ncc4c3)c3cn[nH]c3n2)cc1 [Cpd 11, N-(2-hydroxy-ethyl)-4-[4-(1H-indazol-5-ylamino)-1H-pyrazolo[3,4-d]pyrimidin-6-ylamino]-benzenesulfonamide]",–
3.29,12,75,100,100,15,–,–,"CC(C)C(CO)Nc1nc(Nc2ccc(S(=O)(=O)NCCO)cc2)nc2[nH]ncc12 (centres unmarked) [Cpd 14, N-(2-hydroxy-ethyl)-4-[4-(1-hydroxymethyl-2-methyl-propylamino)-1H-pyrazolo[3,4-d]pyrimidin-6-ylamino]-benzenesulfonamide]",–
0.18,1,1,100,100,15,–,–,"O=S(=O)(NCCO)c1ccc(Nc2nc(Nc3ccc4[nH]ncc4c3)c3cnoc3n2)cc1 [Cpd 15, N-(2-hydroxy-ethyl)-4-[4-(1H-indazol-5-ylamino)-isoxazolo[5,4-d]pyrimidin-6-ylamino]-benzenesulfonamide]",–

# The next lines start with the molecule.
Molecule,IC50 (CDK2) [µM],IC50 (CDK1) [µM],IC50 (VEGFR2) [µM],IC50 (A375 malignant melanoma) [µM],IC50 [1] [µM],IC50 (HCT-116 colon carcinoma) [µM],inhibition at 2 µM (EGFR; test concentration of 2 μM) [%],IC50 (EGFR; read-out: EGFR IC50 (value in parentheses)) [µM],EGFR Inhibition (%) (EGFR; test concentration of 2 μM)
"4-[6-(1H-indazol-5-ylamino)-1H-pyrazolo[3,4-d]pyrimidin-4-ylamino]-benzenesulfonamide [Cpd 4]",0.15,0.527,1.15,–,–,–,–,–,65
"NS(=O)(=O)c1ccc(Nc2nc(NCc3ccccc3)c3cn[nH]c3n2)cc1 [Cpd 2, 4-(4-benzylamino-1H-pyrazolo[3,4-d]pyrimidin-6-ylamino)-benzenesulfonamide]",1.6,7.16,20,–,–,–,–,–,–
"c1nc2ccc(Nc3nc(Nc4ccc5ncsc5c4)c4cn[nH]c4n3)cc2s1 [Cpd 16, N^4,N^6-bis-benzothiazol-6-yl-1H-pyrazolo[3,4-d]pyrimidine-4,6-diamine]",1,5,0.989,8.2,13.3,8.6,–,–,–
"NS(=O)(=O)c1cccc(Nc2nc(Nc3cccc(S(N)(=O)=O)c3)c3cn[nH]c3n2)c1 [Cpd 22, N^4,N^6-bis-[3-(amino-sulfonyl)-phenyl]-1H-pyrazolo[3,4-d]pyrimidine-4,6-diamine]",–,0.475,1,100,100,100,66.7,0.2,–
"NS(=O)(=O)c1ccc(Nc2nc(OCC3CCCCC3)c3cn[nH]c3n2)cc1 [Cpd 23, 4-(4-cyclohexylmethoxy-1H-pyrazolo[3,4-d]pyrimidin-6-ylamino)-benzenesulfonamide]",–,–,> 10,11,18.3,16.6,–,–,–
"c1cc(N2CCNCC2)ccc1Nc1nc(OCC2CCCCC2)c2cn[nH]c2n1 [Cpd 24, (4-cyclohexylmethoxy-1H-pyrazolo[3,4-d]pyrimidin-6-yl)-(4-piperazin-1-yl-phenyl)-amine]",> 100,> 100,> 100,–,–,–,–,–,–
"c1ccc(Nc2nc(OCC3CCCCC3)c3cn[nH]c3n2)cc1 [Cpd 25, (4-cyclohexylmethoxy-1H-pyrazolo[3,4-d]pyrimidin-6-yl)-phenyl-amine]",> 10,> 100,> 10,–,–,–,–,–,–
"O=S(=O)(NCCO)c1ccc(Nc2nc(OCC3CCCCC3)c3cn[nH]c3n2)cc1 [Cpd 26, 4-(4-cyclohexylmethoxy-1H-pyrazolo[3,4-d]pyrimidin-6-ylamino)-N-(2-hydroxy-ethyl)-benzenesulfonamide]",–,0.268,2.32,8.6,4.6,5,–,–,–
"O=S(=O)(NCCN1CCOCC1)c1ccc(Nc2nc(OCC3CCCCC3)c3cn[nH]c3n2)cc1 [Cpd 27, 4-(4-cyclohexylmethoxy-1H-pyrazolo[3,4-d]pyrimidin-6-ylamino)-N-(2-morpholin-4-yl-ethyl)-benzenesulfonamide]",–,0.83,4.47,7.5,19.4,11.2,–,–,–
